Where “and” joins values, the source holds several entries; their conditions need not be identical. Identical values can stand only once.
Experiments:
Rattus norvegicus [1] = conditions: chronic; duration: 2 years; oral; drinking water; Liver: Lesions
Rattus norvegicus [2] = conditions: chronic, M/F
Canidae [3] = conditions: repeat dose other; oral; Dog Other
Rattus norvegicus [4] = conditions: repeat dose other; oral
Mus musculus [5] = conditions: developmental; duration: 7 days; oral; gavage; M/F; ICR; developmental
Rattus norvegicus [6] = conditions: chronic; duration: 2 years; oral; diet; M/F; Osborne-Mendel; hepatic
Canidae [7] = conditions: chronic, oral, Beagle
Mus musculus [8] = conditions: duration: 13 weeks, oral, M/F, CD1, Hepatotoxic lesions (males)
Homo sapiens [9] = conditions: clinical; duration: 10 weeks; oral; diet; Blood: Decreased blood enzyme
Homo sapiens [10] = conditions: clinical; oral; M/F; decreased erythrocyte cu, zn-superoxide dismutase (esod) activity in healthy adult male and female volunteers
Homo sapiens [11] = conditions: clinical, duration: 10 weeks, oral, F, hematological
Homo sapiens [12] = conditions: clinical; oral; M/F; No significant adverse effects
Monkey [13] = conditions: developmental; oral; M/F; reduced birth weight
Neovison sp. = conditions: repeat dose other; oral; Mink
Mus musculus [14] = conditions: oral, gavage
Cricetulus sp. = conditions: acute; oral; Chinese
Canidae [15] = conditions: oral, Beagle
Rattus norvegicus [16] = conditions: for LC50 / LD50: acute
Oryctolagus sp. = conditions: acute
Rattus norvegicus [17] = conditions: short-term; duration: 28 days; oral; gavage; M/F; Sprague-Dawley; Urinalysis: N/A(measured only 16h volume) + Absolute Organ Weight: Liver increase + Relative Organ Weight: Liver increase + Necropsy: Kidney…
Cavia porcellus = conditions: subchronic; duration: 3 months; inhalation; Guinea Pig
Monkey [18] = conditions: subchronic; duration: 3 months; inhalation
Canidae [19] = conditions: chronic; duration: 9 years; oral; capsule; F; Beagle; hepatic
Mus musculus [20] = test: LD0; higher = less toxic; conditions: acute; oral
Gallus sp. = conditions: acute; oral; gavage; White Leghorn
[21] = inhalation, liver toxicity (fatty change)
[22] = oral, drinking water, liver toxicity (fatty change)
[23] = subchronic, duration: 13 weeks, B6C3F1
[24] = subchronic, duration: 13 weeks, oral, gavage, F33/N

Work on `C=C(Cl)Cl` [1,1-Dichloroethylene] yielded an LOAEL (Rattus norvegicus [1]) of 9 mg/kg-day, an LOAEL (Rattus norvegicus [2]; [21]) of 297 mg/m3 and an NOAEL (Rattus norvegicus [2]; [21]) of 99.1 mg/m3. It also gave an LOAEL (Rattus norvegicus [2]; [22]) of 14 mg/kg-day, an NOAEL (Rattus norvegicus [2]; [22]) of 9 mg/kg-day and an NOAEL (Canidae [3]) of 2.5 mg/kg-day. The NOAEL (Rattus norvegicus [4]) was 30 mg/kg-day.
`ClC1=C(Cl)[C@]2(Cl)[C@H]3[C@H]([C@@H]4C=C[C@H]3C4)[C@@]1(Cl)C2(Cl)Cl` [Aldrin] gave an LOAEL (Rattus norvegicus [2]; oral, diet, liver toxicity) of 0.025 mg/kg-day, an LOAEL (Rattus norvegicus [4]) of 1 mg/kg-day and an NOAEL (Rattus norvegicus [4]) of 0.2 mg/kg-day. For the same compound, the LOAEL (Mus musculus [5]) was 2 mg/kg-day, the LOAEL (Rattus norvegicus [6]) was 0.037 mg/kg-day and the LOAEL (Canidae [7]; duration: 16 months, diet, M/F, Urinary) was 0.043 mg/kg-day.
Work on `CC1CCc2cc(F)cc3c(=O)c(C(=O)O)cn1c23` (stereo not drawn) [Flumequine] yielded an NOEL (Mus musculus [8]; feed) of 25 mg/kg-day and an NOEL (Mus musculus [8]; subchronic, diet) of 25 mg/kg-day.
`[Zn]` [Zinc] was tested, and the LOAEL (Homo sapiens [9]) was 1 mg/kg-day, the LOAEL (Homo sapiens [10]) was 0.91 mg/kg-day and the NOAEL (Homo sapiens [11]) was 0.83 mg/kg-day. The NOAEL (Homo sapiens [11]; capsule) was 0.83 mg/kg-day and the NOAEL (Homo sapiens [12]) was 220 mg/day and 600 mg/day.
`Clc1cccc(-c2cc(Cl)cc(Cl)c2)c1` [Aroclor 1016] gave an LOAEL (Monkey [13]) of 0.028 mg/kg-day, an NOAEL (Monkey [13]) of 0.007 mg/kg-day and an LOAEL (Neovison sp.) of 3.43 mg/kg-day. The NOAEL (Neovison sp.) was 1.37 mg/kg-day.
`CCCCCCCCCCCCCCCCCCOC(=O)CCc1cc(C(C)(C)C)c(O)c(C(C)(C)C)c1` [Octadecyl 3-(3,5-di-tert-butyl-4-hydroxyphenyl)propionate] gave an NOAEL (Mus musculus [14]; developmental, duration: 10 days, NMRI) of over 1000 mg/kg-day, an NOAEL (Mus musculus [14]; reproduction developmental, duration: 10 days, F, NMRI) of 500 mg/kg-day and an LD50 (Cricetulus sp.) of over 6000 mg/kg. For the same compound, the NOAEL (Canidae [15]; subchronic, duration: 3 months, diet) was ≥ 31.5 mg/kg-day and ≤ 34.5 mg/kg-day, the LC50 (Rattus norvegicus [16]; inhalation) was over 1.8 µg/mL and the LC50 (Rattus norvegicus [16]; inhalation, particle) was over 1.8 µg/mL. For the same compound, the LD50 (Rattus norvegicus [16]; injection, Intraperitoneal) was over 1000 mg/kg, the LD50 (Rattus norvegicus [16]; injection, intraperitoneal) was over 1000 mg/kg and the LD50 (Rattus norvegicus [16]; oral) was over 5000 mg/kg. The NOAEL (Rattus norvegicus [16]; chronic, duration: 104 weeks, oral, diet, Cfy) was 39 mg/kg-day, the NOAEL (Rattus norvegicus [16]; developmental, duration: 10 days, oral, gavage, Sprague-Dawley) was over 1000 mg/kg-day and the LOAEL (Rattus norvegicus [16]; developmental, oral, diet) was 500 ppm. The NOAEL (Rattus norvegicus [16]; reproduction developmental, duration: 10 months, oral, diet, COBS(R)CD(R), generation: F0) was 1500 ppm, the NOAEL (Rattus norvegicus [16]; reproduction developmental, duration: 10 months, oral, diet, COBS(R)CD(R), generation: F1) was under 500 ppm and the NOAEL (Rattus norvegicus [16]; reproduction developmental, duration: 10 months, oral, diet, COBS(R)CD(R), generation: F2) was under 500 ppm. For the same compound, the NOAEL (Rattus norvegicus [16]; reproduction developmental, duration: 10 days, oral, gavage, F, Sprague-Dawley) was 150 mg/kg-day, the NOAEL (Rattus norvegicus [16]; reproduction developmental, duration: 10 days, oral, gavage, generation: F0) was 150 mg/kg-day and the NOAEL (Rattus norvegicus [16]; reproduction developmental, oral, diet, F) was 1500 ppm. The NOAEL (Rattus norvegicus [16]; reproduction developmental, oral, diet, generation: F0) was 1500 ppm, the NOAEL (Rattus norvegicus [16]; short-term, duration: 21 days, inhalation, RAI f (SPF)) was over 0.543 mg/L and the NOAEL (Rattus norvegicus [16]; short-term, duration: 28 days, oral, diet, F) was 1000 mg/kg-day. For the same compound, the NOAEL (Rattus norvegicus [16]; short-term, duration: 28 days, oral, diet, M) was 100 mg/kg-day, the NOAEL (Rattus norvegicus [16]; short-term, duration: 28 days, oral, gavage, Sprague-Dawley) was 30 mg/kg-day and the LD50 (Oryctolagus sp.; dermal) was over 2000 mg/kg. It also gave an NOAEL (Rattus norvegicus [17]) of 30 mg/kg-day.
With `CCCCC(CC)COP(=O)(OCC(CC)CCCC)OCC(CC)CCCC` (stereo not drawn) [Tris(2-ethylhexyl) phosphate] the LOAEL (Mus musculus [14]; [23]) was 4000 mg/kg-day, the NOAEL (Mus musculus [14]; [23]) was 2000 mg/kg-day and the LOAEL (Cavia porcellus) was 9.6 mg/m3. For the same compound, the NOAEL (Cavia porcellus) was 1.6 mg/m3, the NOAEL (Monkey [18]) was 85 mg/m3 and the LD50 (Rattus norvegicus [16]; inhalation) was over 0.45 mg/L. It also gave an LOAEL (Rattus norvegicus [16]; [24]) of 2000 mg/kg-day, an NOAEL (Rattus norvegicus [16]; [24]) of 1000 mg/kg-day and an NOAEL (Rattus norvegicus [16]; subchronic, duration: 30 days, oral, diet) of 430 mg/kg-day. The LD50 (Oryctolagus sp.; dermal) was 20000 mg/kg, the LD50 (Oryctolagus sp.; injection, intravenous) was over 358 mg/kg and the LD50 (Oryctolagus sp.; intertracheal) was over 1810 mg/kg.
Compound `Nc1ccc(Cc2ccc(N)c(Cl)c2)cc1Cl` [4,4'-Methylenebis(2-chloroaniline)] has an LOAEL (Canidae [19]) of 10 mg/kg-day, an LD0 (Mus musculus [20]) of 640 mg/kg and an LD50 (Oryctolagus sp.; dermal) of over 5000 mg/kg. The LOAEL (Canidae [7]; duration: 9 years, capsule, F, hepatic) was 7.3 mg/kg-day.
For `CC(C)(C)c1ccc(OP2OCC3(CO2)COP(Oc2ccc(C(C)(C)C)cc2C(C)(C)C)OC3)c(C(C)(C)C)c1` (stereo not drawn) [Bis(2,4-di-tert-butylphenyl) pentaerythritol diphosphite], the LD50 (Gallus sp.) was over 6080 mg/kg, the NOAEL (Canidae [15]; chronic, duration: 4 months) was 12 mg/kg-day and the LC50 (Rattus norvegicus [16]; inhalation, Sprague-Dawley) was over 2000 mg/m3. For the same compound, the LD50 (Rattus norvegicus [16]; oral, Sprague-Dawley) was 5580 mg/kg, the NOAEL (Rattus norvegicus [16]; chronic, duration: 24 months, oral, diet, Wistar) was 39 mg/kg-day and the NOAEL (Rattus norvegicus [16]; reproduction developmental, duration: 90 days, oral, diet, Crl:CD(SD), generation: F0) was 1000 ppm. For the same compound, the NOAEL (Rattus norvegicus [16]; reproduction developmental, duration: 90 days, oral, diet, M, Crl:CD(SD)) was 22 mg/kg-day and the LD50 (Oryctolagus sp.; dermal, New Zealand) was over 2000 mg/kg.
